Test results from the NIST ThermoML archive (doi:10.1021/je900596d).

Conditions: Fluid (supercritical or subcritical phases), Vibrating tube method

FC(F)=C(F)C(F)(F)F [hexafluoropropene]
mass density [kg/m3]
Conditions | 343.26 K | 348.12 K
3.1 kPa | – | 0.11
3.7 kPa | – | 0.12
4.8 kPa | – | 0.23
5.4 kPa | – | 0.18
6.4 kPa | – | 0.27
7.4 kPa | – | 0.23
8.3 kPa | – | 0.31
8.9 kPa | – | 0.35
9.9 kPa | – | 0.43
11.5 kPa | – | 0.57
15.2 kPa | – | 0.72
17 kPa | – | 0.83
18.8 kPa | – | 0.9
22.4 kPa | – | 1.11
24.2 kPa | – | 1.25
27.7 kPa | – | 1.44
29.5 kPa | – | 1.44
31.2 kPa | – | 1.52
34.9 kPa | – | 1.74
36.7 kPa | – | 1.87
38.3 kPa | – | 1.89
41 kPa | – | 2.08
43.9 kPa | – | 2.27
46.5 kPa | – | 2.39
49.3 kPa | – | 2.49
55.8 kPa | – | 2.86
59.3 kPa | – | 3.01
62.6 kPa | – | 3.24
65.9 kPa | – | 3.31
72.5 kPa | – | 3.77
75.7 kPa | – | 3.95
78.9 kPa | – | 4.06
82.3 kPa | – | 4.24
89 kPa | – | 4.57
92.4 kPa | – | 4.78
95.9 kPa | – | 4.89
99.3 kPa | – | 5.1
102.8 kPa | – | 5.38
108.9 kPa | – | 5.66
121.1 kPa | – | 6.31
127.3 kPa | – | 6.62
139.4 kPa | – | 7.29
145.5 kPa | – | 7.59
151.6 kPa | – | 7.92
157.7 kPa | – | 8.3
168.6 kPa | – | 8.79
172.3 kPa | – | 9.11
176 kPa | – | 9.23
186.9 kPa | – | 9.89
190.6 kPa | – | 10.07
194.2 kPa | – | 10.28
201.5 kPa | – | 10.61
208.9 kPa | – | 10.99
216.2 kPa | – | 11.48
230.6 kPa | – | 12.26
237.9 kPa | – | 12.55
245.2 kPa | – | 13.05
252.4 kPa | – | 13.5
266.8 kPa | – | 14.29
274 kPa | – | 14.64
281 kPa | – | 15
295.2 kPa | – | 15.84
303.3 kPa | – | 16.23
310.5 kPa | – | 16.69
317.5 kPa | – | 17.06
324.5 kPa | – | 17.51
331.5 kPa | – | 17.9
338.4 kPa | – | 18.25
352.2 kPa | – | 19.05
359.1 kPa | – | 19.45
366 kPa | – | 19.85
379.7 kPa | – | 20.59
386.5 kPa | – | 20.98
393.2 kPa | – | 21.4
399.9 kPa | – | 21.73
413.4 kPa | – | 22.49
420.1 kPa | – | 22.92
426.9 kPa | – | 23.28
433.5 kPa | – | 23.69
443.2 kPa | – | 24.38
470.9 kPa | – | 25.92
484.7 kPa | – | 26.77
498.3 kPa | – | 27.51
515 kPa | – | 28.53
528 kPa | – | 29.29
541 kPa | – | 30.15
566.4 kPa | – | 31.68
575.8 kPa | 33.42 | –
579.2 kPa | – | 32.43
590.5 kPa | 34.28 | –
591.2 kPa | – | 33.18
603.3 kPa | – | 33.86
604.4 kPa | 35.15 | –
617.9 kPa | 35.97 | –
631.9 kPa | 36.94 | –
638.4 kPa | – | 36.05
646.4 kPa | 37.76 | –
655.4 kPa | – | 37.08
660.3 kPa | 38.68 | –
672.1 kPa | – | 38.15
674.2 kPa | 39.57 | –
688.2 kPa | 40.47 | –
688.5 kPa | – | 39.21
701.9 kPa | 41.42 | –
704.5 kPa | – | 40.22
715.6 kPa | 42.26 | –
720.3 kPa | – | 41.24
729.6 kPa | 43.14 | –
735.8 kPa | – | 42.16
743.3 kPa | 44.1 | –
756.9 kPa | 44.99 | –
765.5 kPa | – | 44.05
770.5 kPa | 45.84 | –
783.7 kPa | 46.78 | –
794.2 kPa | – | 45.95
797.6 kPa | 47.61 | –
808 kPa | – | 46.91
810.7 kPa | 48.57 | –
823.9 kPa | 49.41 | –
827.5 kPa | – | 48.2
844.7 kPa | – | 49.34
850.2 kPa | 51.23 | –
863 kPa | 52.13 | –
863.4 kPa | – | 50.7
876.3 kPa | 53.04 | –
889.1 kPa | 53.92 | –
890.4 kPa | – | 52.34
902.2 kPa | 54.71 | –
902.7 kPa | – | 53.25
914.9 kPa | 55.73 | –
915.6 kPa | – | 54.2
928.7 kPa | 56.6 | 55.05
941.5 kPa | 57.53 | –
945.4 kPa | – | 56.14
954 kPa | 58.46 | –
967.8 kPa | 59.43 | –
972.6 kPa | – | 58.01
981 kPa | 60.4 | –
985.8 kPa | – | 58.92
994.4 kPa | 61.4 | –
1005.6 kPa | – | 60.36
1008.2 kPa | 62.31 | –
1020.2 kPa | 63.29 | –
1023.4 kPa | – | 61.55
1034.9 kPa | 64.41 | –
1040.8 kPa | – | 62.84
1046.9 kPa | 65.28 | –
1057.8 kPa | – | 64.05
1060.3 kPa | 66.22 | –
1073.4 kPa | 67.25 | –
1074 kPa | – | 65.2
1087.5 kPa | 68.21 | –
1089.6 kPa | – | 66.39
1100.8 kPa | 69.23 | –
1108 kPa | – | 67.73
1115.6 kPa | 70.43 | –
1129.3 kPa | 71.49 | –
1138.6 kPa | – | 69.96
1141.9 kPa | 72.46 | –
1150.7 kPa | – | 70.83
1155.2 kPa | 73.52 | –
1168.1 kPa | – | 72.19
1170.3 kPa | 74.72 | –
1184.8 kPa | – | 73.38
1185.3 kPa | 75.94 | –
1200.7 kPa | 77.06 | –
1201.8 kPa | – | 74.83
1215.9 kPa | 78.32 | –
1219.5 kPa | – | 76.17
1231.1 kPa | 79.48 | –
1231.5 kPa | – | 77.05
1246.2 kPa | 80.8 | –
1248.8 kPa | – | 78.38
1260.9 kPa | 82.02 | –
1265.1 kPa | – | 79.72
1275.9 kPa | 83.2 | –
1280.3 kPa | – | 80.92
1290.3 kPa | 84.46 | –
1297.6 kPa | – | 82.21
1305.2 kPa | 85.7 | –
1313.7 kPa | – | 83.6
1318.4 kPa | 86.81 | –
1330.4 kPa | – | 84.96
1332.6 kPa | 88.06 | –
1346.3 kPa | – | 86.2
1347.2 kPa | 89.34 | –
1361.6 kPa | 90.6 | –
1362.7 kPa | – | 87.68
1375.5 kPa | 91.86 | –
1378.7 kPa | – | 88.93
1389.9 kPa | 93.09 | –
1395.3 kPa | – | 90.32
1403.7 kPa | 94.34 | –
1410.5 kPa | – | 91.58
1417.7 kPa | 95.63 | –
1426.3 kPa | – | 92.94
1431.1 kPa | 96.88 | –
1442.6 kPa | – | 94.4
1445 kPa | 98.11 | –
1458.7 kPa | 99.32 | –
1460.3 kPa | – | 95.93
1471.8 kPa | 100.55 | –
1473.3 kPa | – | 97.06
1485.2 kPa | 101.78 | –
1487.3 kPa | – | 98.32
1498.3 kPa | 103.12 | –
1511.1 kPa | 104.29 | –
1511.6 kPa | – | 100.57
1540.1 kPa | – | 103.11
1562.1 kPa | 109.24 | –
1566 kPa | – | 105.5
1588.6 kPa | 111.94 | –
1592.2 kPa | – | 107.78
1614.7 kPa | 114.55 | –
1616.1 kPa | – | 110.1
1639.3 kPa | – | 112.32
1641.2 kPa | 117.35 | –
1669.2 kPa | 120.33 | –
1683.8 kPa | – | 116.62
1691 kPa | 122.68 | –
1708.4 kPa | – | 119.29
1719.3 kPa | 125.81 | –
1732.6 kPa | – | 121.75
1745.8 kPa | 128.82 | –
1756.5 kPa | – | 124.29
1773.3 kPa | 132.05 | –
1800.9 kPa | 135.31 | –
1827.4 kPa | 138.58 | –
1854.7 kPa | 141.97 | –
1880.9 kPa | 145.46 | –
1908.3 kPa | 149.04 | –
1933.9 kPa | 152.57 | –
1960.3 kPa | 156.37 | –
1986.1 kPa | 160.18 | –
2014.5 kPa | 164.44 | –
2041.7 kPa | 168.76 | –
2069.4 kPa | 173.21 | –
2096.3 kPa | 177.82 | –
2121.6 kPa | 182.61 | –
2139 kPa | 185.89 | –
2156.2 kPa | 189.13 | –
2172.4 kPa | 192.4 | –
2188.6 kPa | 195.87 | –
2204.8 kPa | 199.3 | –
2221.6 kPa | 203.18 | –
2237.7 kPa | 208.04 | –
2240 kPa | 209.71 | –
2240.5 kPa | 210.31 | –
2241 kPa | 210.66 | –
2241.7 kPa | 211.34 | –
2242.3 kPa | 212.06 | –
2242.9 kPa | 213.01 | –
2243.5 kPa | 214.62 | –
2243.9 kPa | 215.07 | –
2244.6 kPa | 216.87 | –
2245.3 kPa | 218.74 | –
2245.7 kPa | 219.44 | –
2246.2 kPa | 220.03 | –
2246.7 kPa | 220.73 | –
2247.1 kPa | 221.76 | –
2247.5 kPa | 223.54 | –
2248 kPa | 224.32 | –
2248.4 kPa | 225.47 | –
2248.8 kPa | 227.07 | –
2249.3 kPa | 230.72 | –
2249.7 kPa | 239.12 | –
